# Read-outs that look alike come from different tables or passages of the source.
# Assays:
# Meprin α = molecular target: T1, Meprin α (Homo sapiens, UniProt Q16819); assay: fluorogenic peptide cleavage assay; format: biochemical
# T1 construct: gene MEP1A
# T1 sequence (Q16819 66-712): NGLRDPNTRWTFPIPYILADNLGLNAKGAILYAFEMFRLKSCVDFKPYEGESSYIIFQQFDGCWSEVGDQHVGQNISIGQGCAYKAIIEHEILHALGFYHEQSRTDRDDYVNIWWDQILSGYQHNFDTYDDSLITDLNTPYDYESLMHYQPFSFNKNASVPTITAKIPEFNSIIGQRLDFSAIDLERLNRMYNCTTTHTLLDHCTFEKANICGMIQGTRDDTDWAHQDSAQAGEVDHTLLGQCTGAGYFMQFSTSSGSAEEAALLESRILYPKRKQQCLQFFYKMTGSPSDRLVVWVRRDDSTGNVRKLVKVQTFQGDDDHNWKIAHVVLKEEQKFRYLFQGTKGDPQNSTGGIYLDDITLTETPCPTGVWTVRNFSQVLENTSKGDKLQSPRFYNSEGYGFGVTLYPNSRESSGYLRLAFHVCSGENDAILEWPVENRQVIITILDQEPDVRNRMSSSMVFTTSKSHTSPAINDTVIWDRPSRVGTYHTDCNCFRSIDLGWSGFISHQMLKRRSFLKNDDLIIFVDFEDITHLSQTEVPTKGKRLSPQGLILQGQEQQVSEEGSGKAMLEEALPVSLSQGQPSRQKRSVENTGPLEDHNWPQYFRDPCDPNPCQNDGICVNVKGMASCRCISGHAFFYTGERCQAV
# Text: fluorogenic peptide cleavage assay on Meprin α
# Meprin β = molecular target: T2, Meprin β (Homo sapiens, UniProt Q16820); assay: fluorogenic peptide cleavage assay; format: biochemical
# T2 construct: gene MEP1B
# T2 sequence (Q16820 62-652): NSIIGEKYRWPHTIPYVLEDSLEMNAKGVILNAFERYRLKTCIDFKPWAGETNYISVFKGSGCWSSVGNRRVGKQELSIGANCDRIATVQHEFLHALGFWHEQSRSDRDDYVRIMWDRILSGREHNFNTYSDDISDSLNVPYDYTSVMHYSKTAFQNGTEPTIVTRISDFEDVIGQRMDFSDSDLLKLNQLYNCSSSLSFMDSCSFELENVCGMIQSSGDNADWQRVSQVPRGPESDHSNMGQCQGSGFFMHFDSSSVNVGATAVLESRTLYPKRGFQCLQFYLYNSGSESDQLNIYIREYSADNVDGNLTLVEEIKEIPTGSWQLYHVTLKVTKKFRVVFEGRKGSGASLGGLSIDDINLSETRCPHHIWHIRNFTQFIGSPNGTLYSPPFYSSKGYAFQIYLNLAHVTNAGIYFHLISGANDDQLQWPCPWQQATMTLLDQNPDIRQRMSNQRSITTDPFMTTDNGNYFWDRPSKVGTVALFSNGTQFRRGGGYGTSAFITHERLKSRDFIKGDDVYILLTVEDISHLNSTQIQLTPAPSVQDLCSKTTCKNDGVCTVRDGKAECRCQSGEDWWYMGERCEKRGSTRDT
# Text: fluorogenic peptide cleavage assay on Meprin β
# [1] = […] Mca-YVADAPK-Dnp, […] enzyme, […] HEPES pH […] NaCl, […] CaCl2, […] °C
Compound,IC50 (Meprin α) [nM],IC50 (Meprin β) [nM],IC50 (Meprin α; [1]) [nM],IC50 (Meprin β; [1]) [nM]
CCCCC[C@H](CC(=O)NO)C(=O)N[C@H](C(=O)N1CCC[C@H]1CO)C(C)C [Actinonin],55 ± 11,744 ± 29,,
CNC(=O)[C@H](Cc1c[nH]c2ccccc12)NC(=O)[C@@H](CC(=O)NO)CC(C)C [GM6001],185 ± 12,> 10000,,
COc1ccc(CCN(CCC(=O)NO)S(=O)(=O)c2ccc(NC(=O)NCCc3ccccc3)cc2)cc1 [S33A],393 ± 82,> 10000,,
FG‐2575,,,> 1000,> 10000
